What all share (assay): NCI-60 cell line screen, 48 h
The subject of test [1] is A498 renal.
The subject of test [2] is A549 NSCLC.
The subject of test [3] is CAKI-1 renal.
The test system of test [4] is COLO 205 colon.
The test system of test [5] is NCI-H460 lung.
Test [6] concerns NCI-H522 lung.
For test [7], the system named is OVCAR-8 ovarian.
Test [8] concerns RXF 393 renal.
Test [9] deals with U251 CNS.
Test [10] has as its system UACC-257 melanoma.

Where “and” joins values, the source holds several entries; their conditions need not be identical. Identical values can stand only once.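 Cells were grown in 96-well plates and exposed to each compound for 48 hours at five concentrations; endpoints were interpolated linearly between bracketing concentrations, or set to the highest concentration if not reached. Abbreviation: GI50, concentration required for 50% inhibition of growth. TGI denotes the concentration required for complete inhibition of growth.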

Regarding `COC1=C(OC)C(=O)C(/C=C(\C)C(=O)O)=C(C)C1=O`, the GI50 in test [1], in test [2], in test [3], in [4], in test [5] and in test [6] was over 100 µM each time. The GI50 in test [7], in test [8], in test [9] and in test [10] was over 100 µM throughout. For the same molecule, the TGI in [1], in [2], in [3], in test [4], in [5] and in test [6] was over 100 µM in each case. In addition, the TGI in [7], in test [8], in [9] and in test [10] was over 100 µM throughout.
Turning to `Cc1ccc(-n2c3c(c4c(CN5CCCCC5)c(O)ccc42)CCc2ccccc2C3=O)cc1`, the GI50 in [1], in [2], in test [3], in test [4], in [5] and in [6] was over 100 µM throughout. The GI50 in [7] was 46 µM; in test [8], 24.7 µM; in test [9] it was 47.9 µM; in [10], over 100 µM. The TGI in [1], in test [2], in [3], in [4], in [5] and in test [6] was over 100 µM throughout. Also, the TGI in [7], in [8], in test [9] and in test [10] was over 100 µM each time.
On to `Oc1nc(NCCc2ccccc2)sc1/C=C1\C=Nc2ncccc21`, for which the GI50 is 1.95 µM and 1.84 µM in test [1]; 3.18 µM and 3.67 µM in test [2]; 2.61 µM and 5.34 µM in [3]; 1.93 µM and 2.96 µM in test [4]; 3.01 µM and 3.16 µM in [5]; 1.43 µM and 1.39 µM in [6]. The GI50 is 2.91 µM and 3.12 µM in [7]; 1.91 µM and 2.53 µM in [8]; 2.29 µM and 3.26 µM in test [9]; 3.49 µM and 3.36 µM in test [10]. Further, the TGI is 4.19 µM and 4.45 µM in test [1]; 12.5 µM and 14.6 µM in test [2]; 14 µM and > 100 µM in test [3]; 5.95 µM and 11 µM in test [4]; 10.2 µM and 13.6 µM in test [5]; 12.1 µM and 11.6 µM in [6]. Moreover, the TGI was 13.4 µM and 14.8 µM in [7]; 4.08 µM and 5.72 µM in test [8]; 7.89 µM and 11.5 µM in test [9]; 8.68 µM and 8.42 µM in test [10].
Regarding `O=C(c1cc(=O)c2ccc(O)cc2o1)c1ccc(Cl)cc1Cl`, the TGI in test [1] is over 100 µM; in test [2], over 100 µM; in test [3], over 100 µM; in test [4], over 38.3 µM; in test [5], over 100 µM; in test [6], over 59 µM. For the same molecule, the TGI in test [7] was over 100 µM; in [8], 98.4 µM; in test [9], over 100 µM; in test [10], over 71.9 µM.
As for `Clc1ccc(-c2nc3c(-c4ccc(Cl)cc4)nc(-c4ccccc4)cn3c2-c2ccc(Cl)cc2)cc1`, the GI50 in test [1] was over 50 µM; in test [2] it was over 50 µM; in test [3] it was 27.8 µM; in [4], over 50 µM; in test [5] it was over 50 µM; in test [6], 44.7 µM. The GI50 is over 50 µM in [7], 11.1 µM in test [8], 45.2 µM in test [9] and over 50 µM in [10]. The TGI in [1], in test [2], in test [3], in [4], in test [5] and in test [6] was over 50 µM throughout. In addition, the TGI is over 50 µM in test [7], 29 µM in [8], over 50 µM in test [9] and over 50 µM in test [10].
For `CSC1=Nc2c(c(C)c(-c3ccccc3)n2COC(CO)CO)C2=NC(=O)C(C)N12` (stereo not given), the GI50 in test [1], in test [2], in test [3], in test [4], in test [5] and in test [6] was over 100 µM each time. In addition, the GI50 in [7], in test [8], in [9] and in test [10] was over 100 µM throughout. Besides, the TGI in test [1], in [2], in test [3], in test [4], in test [5] and in test [6] was over 100 µM throughout. The TGI in test [7], in test [8], in test [9] and in test [10] was over 100 µM each time.
For the molecule `CCOC(=O)C1=C(Nc2ccccc2)OC/C1=N\NC(=O)Cc1ccccc1`, the TGI in test [1], in test [2], in test [3], in test [4], in test [5] and in test [6] was over 50 µM each time. Besides, the TGI in test [7], in test [8], in test [9] and in test [10] was over 50 µM each time.
On to `CCOc1ccccc1NC(=O)C(=O)CC(=O)C1=C(C)Nc2ccccc2S1`, for which the TGI in [1], in [2], in test [3], in [4], in test [5] and in test [6] was over 100 µM in each case. In addition, the TGI in test [7], in test [8], in test [9] and in [10] was over 100 µM throughout.
As to `CCCCCCN(CCCCCC)CCCNc1nccc2ccccc12`, the GI50 in test [1] was 1.08 µM; in test [2], 2.64 µM; in test [3], 1.92 µM; in test [4], 1.48 µM; in [5], 1.4 µM; in test [6] it was 1.44 µM. In addition, the GI50 in [7] was 1.67 µM; in [8], 1.82 µM; in [9] it was 1.54 µM; in test [10] it was 1.84 µM. In addition, the TGI in [1] worked out at 2.8 µM; in test [2], 7.98 µM; in test [3] it was 5.33 µM; in [4], 3.07 µM; in test [5] it was 2.88 µM; in test [6], 3.23 µM. Further, the TGI in test [7] worked out at 3.19 µM; in test [8], 5.3 µM; in test [9], 2.96 µM; in [10], 3.54 µM.
For `CCCc1cc(=O)oc2c(C(=O)CC(C)C)c(O)c(CC=C(C)C)c(O)c12`, the GI50 in [1] is 4.04 µM; in test [2], 11.4 µM; in test [3], 8.38 µM; in test [4], 10.6 µM; in test [5], 8.03 µM; in test [6], 8.17 µM. Besides, the GI50 was 12 µM in test [7], 13.7 µM in test [8], 9.19 µM in [9] and 5.89 µM in test [10]. The TGI in [1] is 17.9 µM; in test [2], over 50 µM; in test [3] it was 33.9 µM; in test [4], 21.5 µM; in [5], over 50 µM; in test [6] it was over 50 µM. In addition, the TGI is over 50 µM in test [7], 45.2 µM in test [8], over 50 µM in [9] and 29.9 µM in [10].
For `CCOP(=O)(CCP(=O)(OCC)OCC)OCC.C[CH2][Sn]([Cl])([Cl])[CH2]C`, the GI50 in [1] was 17.4 µM; in test [2] it was over 100 µM; in [3], 13.9 µM; in [4], 30.4 µM; in test [5], over 81.8 µM; in [6], 1.64 µM. The GI50 is over 100 µM in test [7], 15.3 µM in test [8], 37.9 µM in test [9] and 28.5 µM in test [10]. For the same molecule, the TGI was 26 µM in test [1]; over 100 µM in test [2]; 35 µM in test [3]; 50.9 µM in test [4]; over 100 µM in test [5]; 4.97 µM in test [6]. Also, the TGI in test [7] is over 100 µM; in [8], 30.1 µM; in test [9], over 69.3 µM; in test [10], 59.3 µM.
Take `Fc1ccc(-c2nc(-c3nc4ccc(Cl)cc4[nH]3)cc3c2[nH]c2ccccc23)cc1`: the GI50 in test [1] is 2.01 µM; in test [2], 2.89 µM; in test [3], 3.22 µM; in test [4] it was 1.89 µM; in test [5], 2.97 µM; in test [6], 2.74 µM. Also, the GI50 in [7] is 2.88 µM; in test [8], 1.62 µM; in test [9] it was 3.31 µM; in [10] it was 2.4 µM. Also, the TGI was determined as 9.71 µM in [1]; 12.3 µM in [2]; 24 µM in [3]; 4.22 µM in [4]; 10.5 µM in [5]; 12.9 µM in [6]. The TGI came out at 10.7 µM in test [7], 4.66 µM in test [8], 18 µM in test [9] and 6.62 µM in test [10].
Regarding `CC(=O)NNc1nc(C)c(C(=O)NNC(=O)C(=O)Nc2ccc(C)c(C)c2)s1`, the TGI in test [1] is over 100 µM; in test [2], over 100 µM; in [3], over 100 µM; in test [4], over 100 µM; in test [5] it was over 100 µM; in test [6] it was 46.3 µM. For the same molecule, the TGI in test [7], in [8], in [9] and in test [10] was over 100 µM in each case.
`O=c1[nH]c(=S)[nH]c2c1sc(=S)n2-c1ccccc1`: the TGI in test [1], in [2], in test [3], in [4], in [5] and in test [6] was over 100 µM throughout. The TGI in test [7], in [8], in test [9] and in [10] was over 100 µM in each case.
Turning to `Cc1c2ccccc2c(C)c2c3c(ccc12)C(=O)C=CC3=O`, the TGI in test [1] is over 100 µM; in [2], over 100 µM; in test [3], 46.3 µM; in test [4], 31.5 µM; in test [5], over 100 µM; in test [6], 28 µM. The TGI is 28.7 µM in test [7], 27.4 µM in [8], over 100 µM in [9] and 41.5 µM in test [10].
On to `CCCNc1nc(N(C)O)nc(N(C)O)n1`, for which the GI50 was 9.51 µM in test [1]; 1.8 µM in test [2]; 3.15 µM in test [3]; 2.23 µM in test [4]; 0.563 µM in [5]; 1.11 µM in test [6]. Besides, the GI50 in test [7] was 2.45 µM; in [8] it was 2.96 µM; in [9] it was 0.955 µM; in test [10], 4.13 µM. In addition, the TGI in test [1] was over 62.6 µM; in [2], over 100 µM; in [3], 43.7 µM; in test [4] it was 32.2 µM; in test [5], over 56.8 µM; in test [6] it was 7.3 µM. Further, the TGI in [7] was over 100 µM; in test [8], over 62 µM; in test [9], over 100 µM; in [10], over 46.2 µM.
Turning to `CC1C2Cc3ccc(O)cc3C1(C)CCN2C` (stereo not given), the TGI in [1], in test [2], in test [3], in test [4], in test [5] and in [6] was over 100 µM each time. Further, the TGI in [7], in [8], in test [9] and in test [10] was over 100 µM throughout.
For `C=C1C(=O)OC2CCCCC3OC3C12` (stereo not given), the TGI in test [1] came to 29.1 µM; in [2], 40.2 µM; in test [3] it was 9.83 µM; in test [4] it was 11.5 µM; in [5], 28.3 µM; in test [6], 3.91 µM. The TGI amounted to 32.4 µM in test [7], 30.1 µM in [8], 23 µM in test [9] and 26.5 µM in test [10].
